Measurements taken from US9688673B2, “Deoxycytidine kinase binding compounds” (THE REGENTS OF THE UNIVERSITY OF CALIFORNIA, priority 2011, dated 2017).
pEC50, pIC50: −log10 of the molar value. “Also recorded” adds a separate entry of the source.

Key:
[1] = molecular target: deoxycytidine kinase (dCK) (Homo sapiens, UniProt P27707); assay: Inhibition of [3H]-deoxycytidine (dCyd) uptake by CEM cells; details: for Inhibition of [3H]-dCyd uptake by CEM cells, in words: ranking within panel / compared with DI-0105, DI-0110 and DI-0120
Sequence of deoxycytidine kinase (dCK) (P27707 whole entry): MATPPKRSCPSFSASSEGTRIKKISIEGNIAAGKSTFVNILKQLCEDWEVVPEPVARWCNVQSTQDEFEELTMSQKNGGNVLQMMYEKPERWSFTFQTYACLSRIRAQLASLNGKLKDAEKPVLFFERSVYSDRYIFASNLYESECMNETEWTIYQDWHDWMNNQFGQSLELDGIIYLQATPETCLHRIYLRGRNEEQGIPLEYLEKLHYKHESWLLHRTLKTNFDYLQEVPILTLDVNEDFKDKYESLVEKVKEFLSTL
Method: Potency of dCK inhibitory activities of the compounds can be tested by measuring cellular substrate uptake and phosphorylation, for examples, uptake of [^3H]-deoxycytidine (dCyd or dC) into CEM (human) or L1210 (mouse) cells.
50,000 CEM cells/well were added to Millipore MultiScreen GV 96 well plates. Cells were resuspended at 1×10^6 cells/mL and incubated for 30 minutes at 37° C. The drug dilution plate was prepared by starting with an initial drug concentration of 10 mM in DMSO, and proceeding to make 1:5 dilutions for drug. 10 mL of drug was added to 40 mL DMSO and mixed by pipetting 10 times before removing 10 uL for next well (1:5 serial dilutions). The media and tritiated deoxycytidine was mixed together. 245 mL of media/probe mixture was added to each well of an Optiplate. 5 mL from drug plate was added to each well in the Optiplate to obtain drug/media/probe mixture and mixed. 50 mL of drug/media/probe mixture from Optiplate was added to the cell plate and incubate at 37° C. for 1 hour. The cell plate was placed on vacuum to aspirate, and then washed with ice cold PBS: 200 mL 1×PBS 4 times. The backing of the plate was peeled off, and the plate was placed in dryer for at least 30 minutes or until dry at 37° C. 100 mL Scintillation fluid per well was added, and the plate was sealed with clear plate seal. The plate was read on the Microbeta instrument.

[2] = molecular target: T1, dCK activity (Mus musculus, UniProt P43346); assay: Inhibition of dCK activity in vivo by 18F-FAC PET/CT imaging; details: mice
T1 construct: dCK expressing tissues such as Thymus (Thy), Bone marrow (BM), spleen (S) and the GI tract; from tissue; host or cells: living mice: thymus, bone marrow, spleen, GI tract
T1 sequence (P43346 whole entry): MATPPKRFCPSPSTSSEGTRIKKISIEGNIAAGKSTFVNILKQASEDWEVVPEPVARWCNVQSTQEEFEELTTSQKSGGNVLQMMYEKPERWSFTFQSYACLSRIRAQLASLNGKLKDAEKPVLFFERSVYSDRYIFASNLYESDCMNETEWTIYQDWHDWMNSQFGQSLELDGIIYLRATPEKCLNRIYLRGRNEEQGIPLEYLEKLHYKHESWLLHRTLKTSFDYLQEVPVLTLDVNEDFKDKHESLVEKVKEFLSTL
Method: Mice were treated with the dCK inhibitor and scanned at indicated time points by ^18F-FAC PET/CT to non-invasively determine dCK activity in vivo, throughout the body. ^18F-FAC PET/CT scans were performed as described in Shu, C. J. et al., “Novel PET probes specific for deoxycytidine kinase” J. Nucl.

[3] = test system: CCRF-CEM (CEM) human acute T lymphoblastic leukemia; assay: S-phase arrest by flow cytometry, CEM cells; type: cell-based
Method: (§1) At the end of the incubation period cells were analyzed by flow cytometry to determine the effects of the treatment on cell cycle progression.

[4] = test system: NALM-6 human acute B lymphoblastic leukemia; assay: S-phase arrest by flow cytometry, NALM-6 cells; type: cell-based
Method: as §1

[5] = test system: IGROV1 human ovarian adenocarcinoma; assay: S-phase arrest by flow cytometry, IGROV1 cells; type: cell-based
Method: as §1

[6] = test system: CCRF-CEM (CEM) human acute T lymphoblastic leukemia; assay: Leukemic cell proliferation and viability, CEM cells, 72 hours; type: cell-based
Method: Addition of 2.5 μM dC rescued the cell cycle from the thymidine block by the salvage pathway.

[7] = test system: CEM shC cells; assay: Growth of CEM cells treated with dT and/or dC over 7 days; type: cell-based, human; details: period of 7 days
Text: Compound F2.2.1 was not used in “Mock” experiments in either panel A or B.

[8] = test system: Primary murine T cells; assay: In vitro T lymphocyte proliferation (CFSE, flow cytometry); type: cell-based, C57/BL6 mice; details: 1 μM final concentration, 72 hours after activation
Method: Primary murine T cells were obtained from C57/BL6 mice. […] Prior to antibody-mediated activation, T cells were labeled with the fluorescent dye CFSE to allow measurements of cell division. […] The dCK inhibitors were used at 1 μM final concentration.

[9] = test system: A549 human lung adenocarcinoma cells; assay: Cell proliferation and viability, A549 cells, 72 hours; details: 1 μM F2.2.1 + 1 mM dT
Method: At the end of the incubation period cells were analyzed by flow cytometry to determine the effects of the treatment on cell proliferation and viability.

[10] = test system: NALM-6 human acute B lymphoblastic leukemia; assay: Cell proliferation and viability, NALM-6 cells, 72 hours; details: 1 μM F2.2.1 + 1.6 mM dT, media with 1.25 μM deoxycytidine
Method: At the end of the incubation period cells were analyzed by flow cytometry to determine the effects of the treatment on leukemic cell proliferation and viability.

[11] = test system: thymidine (dT) uptake; assay: Inhibition of thymidine (dT) uptake (selectivity vs. dC uptake); details: read-out: dCKi IC50 dT
Text: Potency of dCK inhibitory activities of the compounds can be tested by measuring cellular substrate uptake and phosphorylation, for examples, uptake of [^3H]-deoxycytidine (dCyd or dC) into CEM (human) or L1210 (mouse) cells. The compounds may be further screened for low off-target toxicity (e.g., inhibition of growth and proliferation of dCK negative cells) and selectivity over other nucleoside kinases (e.g., thymidine kinase).

COc1ccc(-c2nc(CSc3nc(N)cc(N)n3)cs2)cc1 [DI-0110]
pEC50 [1]: 6.32

COc1ccc(-c2nc(CSc3nc(N)cc(N)n3)c(C)s2)cc1OCCF [Compound F2.2.1]
Duration of inhibition of dCK activity in vivo in multiple tissues ([2]; 200 mg/kg oral gavage): at least 2 hours
18F-FAC signals in dCK expressing tissues ([2]; Thymus, Bone marrow, spleen and GI tract): Significant decrease
18F-FAC signals in the bladder ([2]; bladder, probe clearance organ): not affected
dT + dCKi % S-phase arrest (of cells in cycle) ([3]; 50 mM dT + 1 mM F2.2.1, 24 hours): 84.5%
dT + dCKi % S-phase arrest (of cells in cycle) ([4]; NALM-6, 1.6 mM dT + 1 mM F2.2.1, 24 hours): 79.8%
dT + dCKi % S-phase arrest (of cells in cycle) ([5]; IGROV1, 1 mM dT + 1 mM F2.2.1, 24 hours): 60.3%
Growth / proliferation of CEM cells, combination with thymidine ([6]; 1 μM F2.2.1 + 50 μM dT): almost completely shut down the growth of CEM cells; also recorded: significantly reduce the proliferation
Effect on cell viability, compound alone ([6]; 1 μM alone): little effect on cell viability
Growth of thymidine (dT) treated CEM cells [7]: completely suppressed the growth
T cell proliferation [8]: significantly blocks T cell proliferation
Proliferation of A549 cells, combination with thymidine [9]: significantly reduce the proliferation
Proliferation of NALM-6 cells, combination with thymidine [10]: significantly reduce the proliferation
Inhibition of [3H]-dCyd uptake by CEM cells, in words [1]: superior activities
pIC50 [11]: 5.31

Nc1ccn([C@H]2C[C@H](O)[C@@H](CO)O2)c(=O)n1 [deoxycytidine (dC), deoxycytidine]
Number of viable cells relative to vehicle control, deoxycytidine ([6]; 2.5 μM dC): decreased the number of viable cells

CCCc1sc(-c2ccc(OC)c(OCCO)c2)nc1CSc1nccc(N)n1 [DI-27]
Inhibition of [3H]-dCyd uptake by CEM cells, in words [1]: among the most potent compounds in this panel

Cc1cn([C@H]2C[C@H](O)[C@@H](CO)O2)c(=O)[nH]c1=O [dT, thymidine, reference compound]
dT without dCKi % S-phase arrest (of cells in cycle) ([3]; 50 mM dT, 24 hours): 36%
dT without dCKi % S-phase arrest (of cells in cycle) ([4]; NALM-6, 1.6 mM dT, 24 hours): 52%
dT without dCKi % S-phase arrest (of cells in cycle) ([5]; IGROV1, 1 mM dT, 24 hours): 35.9%
Cell growth and cell cycle, thymidine alone ([6]; dT at 50 μM): suppressed cell growth but failed to shut down the cell cycle

CCOc1ccc(-c2nc(CSc3nc(N)cc(N)n3)cs2)cc1OC [DI-0105]
pEC50 [1]: 6.88

COc1ccc(Br)cc1-c1nc(CSc2nc(N)cc(N)n2)cs1 [DI-0120]
pEC50 [1]: 6.11

CCCc1sc(-c2ccnc(OCCO)c2)nc1CSc1nc(N)cc(N)n1 [DI-30]
pEC50 [1]: 8.60
Inhibition of [3H]-dCyd uptake by CEM cells, in words [1]: among the most potent compounds in this panel; also recorded: superior activities

CCCc1sc(-c2ccc(OC)c(OCCO)c2)nc1CSc1nc(N)cc(N)n1 [DI-26]
T cell proliferation [8]: significantly blocks T cell proliferation

CCCc1sc(-c2cccc(OCCO)c2)nc1CSc1nc(N)cc(N)n1 [DI-29]
Inhibition of [3H]-dCyd uptake by CEM cells, in words [1]: among the most potent compounds in this panel
